Earlier results, collected in paper PMC5601361, “Targeting the Receptor for Advanced Glycation Endproducts (RAGE): A Medicinal Chemistry Perspective” (Journal of Medicinal Chemistry, 2017).
Entries after “also recorded” stand apart in the source; their conditions may differ. Read-outs that look alike come from different tables or passages of the source.

Experiments:
[1] = test system: RAGE-overexpressing brain endothelial cells monolayer; parameters: method as in PMID 23140885; conditions: artificial BBB system
[2] = test system: human RAGE-Aβ; parameters: method as in PMID 23140885
[3] = test system: CHO cells; parameters: method as in PMID 23140885; conditions: in vitro
[4] = test system: APPswe/PS1 mice; conditions: po 50 mg/kg every 2 days for 4 weeks; 50 mg/kg
[5] = test system: human RAGE-Aβ1–42 interaction; parameters: method as in PMID 26051601; conditions: in vitro
[6] = test system: HT22 cells; conditions: 10 μM
[7] = molecular target: human sRAGE; parameters: method as in PMID 17508727; conditions: SPR
[8] = molecular target: human sRAGE; parameters: method as in PMID 17660747; conditions: V domain, SPR
[9] = molecular target: human sRAGE; conditions: SPR
[10] = molecular target: human sRAGE; conditions: VC1 domain; ITC; read-out: affinity for RAGE (Kd)
[11] = molecular target: human RAGE; parameters: method as in PMID 25084534; conditions: V domain; Ca2+-bound S100P homodimer; read-out: affinity for RAGE (Kd)

Molecule: CCCCc1sc(-c2ccc(OCCN3CCN(C)CC3)cc2)nc1-c1ccc(Oc2ccc(Cl)cc2)cc1 [Compound 2]
- Aβ1–42 influx / Aβ transport [1]: Aβ transport inhibition; also recorded: • inhibition of Aβ1–42 influx in the brain
- RAGE-Aβ binding [2]: • RAGE-Aβ binding inhibition
- IC50 ([2]; ELISA on human RAGE-Aβ (RAGE-Aβ1–42 interaction)): 1210 nM
- Aβ1–42-associated NF-κB activation [3]: • inhibition of Aβ1–42-associated NF-κB activation (in vitro)

Molecule: CC(C)(C)OC(=O)N1CCN(CCCOc2ccc(-c3nc4ccc(Oc5ccc(Cl)cc5)cc4o3)cc2)CC1 [Compound 8]
- amyloid deposition / Aβ and amyloid plaque levels in the brain [4]: did not significantly affect
- RAGE-Aβ1–42 binding [5]: • RAGE-Aβ1–42 binding inhibition (in vitro)
- toxicity in HT22 cells [6]: not toxic

Molecule: S100B: Ca2+-binding S100/calgranulin family protein, endogenous RAGE ligand [Compound S100B]
- Kd ([7]; V domain, read-out: Kd1): 550 nM
- Kd ([7]; V domain, read-out: Kd2): 470 nM
- Kd ([7]; VC1 domain, read-out: Kd1): 11 nM
- Kd ([7]; VC1 domain, read-out: Kd2): 244 nM
- Kd ([8]; S100B dimer, read-out: Kd): 8300 nM
- Kd ([8]; S100B tetramer, read-out: Kd1): 1100 nM
- Kd ([8]; S100B tetramer, read-out: Kd2): 42 nM
- Kd ([9]; V domain, read-out: Kd1): 500 nM
- Kd ([9]; V domain, read-out: Kd2): 600 nM
- Kd ([9]; VC1 domain, read-out: Kd1): 11 nM
- Kd ([9]; VC1 domain, read-out: Kd2): 200 nM
- Kd [10]: 3200 to 9400 nM

B1: S100P: S100 family protein binding the RAGE V domain (protein, UniProt P25815 1-95, looked up)
Protein S100-P: MTELETAMGMIIDVFSRYSGSEGSTQTLTKGELKVLMEKELPGFLQSGKDKDAVDKLLKDLDANGDAQVDFSEFIVFVAAITSACHKYFEKAGLK
- Kd [11]: 6000 nM
